# Reference: ChEMBL document CHEMBL1130395, “Cannabinol derivatives: binding to cannabinoid receptors and inhibition of adenylylcyclase” (J Med Chem, 1997)
# Active and inactive are the calls of the source. No cut-off for these calls is given here.
# Molecular target: T1, Cannabinoid receptor 2 (Homo sapiens, UniProt P34972)
# Test: Effective concentration for inhibition of human Cannabinoid receptor 2-mediated adenylyl cyclase using African green monkey (COS-7) cells transfected with the cDNA of human CB2 receptor
# Type: functional
# T1 sequence (P34972 whole entry): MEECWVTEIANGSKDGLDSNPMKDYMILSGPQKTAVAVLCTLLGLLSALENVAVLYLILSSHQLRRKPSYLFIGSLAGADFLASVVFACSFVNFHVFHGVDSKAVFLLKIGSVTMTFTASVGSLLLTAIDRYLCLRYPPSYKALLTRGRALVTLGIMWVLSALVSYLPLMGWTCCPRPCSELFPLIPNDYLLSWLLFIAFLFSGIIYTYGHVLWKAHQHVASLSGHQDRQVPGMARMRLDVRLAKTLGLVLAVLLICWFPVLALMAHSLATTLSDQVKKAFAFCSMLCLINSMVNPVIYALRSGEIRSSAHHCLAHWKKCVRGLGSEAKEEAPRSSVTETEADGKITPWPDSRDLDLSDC
row,SMILES,EC50 [nM]
1,CCCCCc1cc(O)c2c(c1)OC(C)(C)c1ccc(C)cc1-2 [CANNABINOL],261
2,CCCCCCC(C)(C)c1cc(O)c2c(c1)OC(C)(C)c1ccc(C)cc1-2,0.79
3,CCCCCCC(C)(C)c1cc(OC(C)=O)c2c(c1)OC(C)(C)c1ccc(C(=O)O)cc1-2,39.3
4,CCCCCCC(C)(C)c1cc(O)c2c(c1)oc(=O)c1ccc(C)cc12,4.6
5,CCCCCCC(C)(C)c1cc(O)c2c(c1)OC(C)(C)c1ccc(C(=O)O)cc1-2,5.4
6,CCCCCCC(C)(C)c1cc(O)c2c(c1)OC(C)(C)[C@@H]1CC=C(C(=O)O)CC21 (some centres undefined),116
7,CCCCCCC(C)(C)c1cc(O)c2c(c1)OC(C)(C)[C@@H]1CCC(C)=CC21 (some centres undefined),1.01
8,CCCCCCC(C)(C)c1cc(O)c2c(c1)OC(C)(C)c1ccc(CO)cc1-2,0.208

# Molecular target: T1, Cannabinoid receptor 2
# Test: Inhibitory activity of 1 uM against human Cannabinoid receptor 2-mediated adenylyl cyclase using African green monkey (COS-7) cells transfected with the cDNA of human CB2 receptor
# Type: functional, cell-based
row,SMILES,inhibition [%]
1,CCCCCc1cc(O)c2c(c1)OC(C)(C)c1ccc(CO)cc1-2,20
2,CCCCCc1cc(OC(C)=O)c2c(c1)OC(C)(C)c1ccc(C(=O)O)cc1-2,2
3,CCCCCc1cc(O)c2c(c1)OC(C)(C)[C@@H]1CC=C(CO)CC21 (some centres undefined),19
4,CCCCCc1cc(O)c2c(c1)OC(C)(C)c1ccc(C(=O)O)cc1-2,6
5,CCCCCc1cc(O)c2c(c1)OC(C)(C)[C@@H]1CCC(C)=C[C@@H]21,21
6,CCCCCCC(C)(C)c1cc(OC(C)=O)c2c(c1)OC(C)(C)[C@@H]1CC=C(C(=O)O)CC21 (some centres undefined),27

# Molecular target: T1, Cannabinoid receptor 2
# Test: Inhibitory affect of 1 uM against African green monkey (COS-7) cells Chinese hamster ovary(CHO) cells transfected with the cDNA of human Cannabinoid receptor 2
# Type: cell-based
row,SMILES,inhibition [%]
1,CCCCCc1cc(OC(C)=O)c2c(c1)OC(C)(C)c1ccc(C(=O)O)cc1-2,19

# Molecular target: T1, Cannabinoid receptor 2
# Test: Inhibitory affect of 1 uM of the substance against African green monkey (COS-7) cells Chinese hamster ovary(CHO) cells transfected with the cDNA of human Cannabinoid receptor 2
# Type: cell-based
row,SMILES,inhibition [%]
1,CCCCCc1cc(O)c2c(c1)OC(C)(C)c1ccc(C(=O)O)cc1-2,23
2,CCCCCc1cc(O)c2c(c1)oc(=O)c1ccc(C)cc12,14

# Molecular target: T2, Cannabinoid receptor 1 (Rattus norvegicus, UniProt P20272)
# T2 sequence (P20272 whole entry): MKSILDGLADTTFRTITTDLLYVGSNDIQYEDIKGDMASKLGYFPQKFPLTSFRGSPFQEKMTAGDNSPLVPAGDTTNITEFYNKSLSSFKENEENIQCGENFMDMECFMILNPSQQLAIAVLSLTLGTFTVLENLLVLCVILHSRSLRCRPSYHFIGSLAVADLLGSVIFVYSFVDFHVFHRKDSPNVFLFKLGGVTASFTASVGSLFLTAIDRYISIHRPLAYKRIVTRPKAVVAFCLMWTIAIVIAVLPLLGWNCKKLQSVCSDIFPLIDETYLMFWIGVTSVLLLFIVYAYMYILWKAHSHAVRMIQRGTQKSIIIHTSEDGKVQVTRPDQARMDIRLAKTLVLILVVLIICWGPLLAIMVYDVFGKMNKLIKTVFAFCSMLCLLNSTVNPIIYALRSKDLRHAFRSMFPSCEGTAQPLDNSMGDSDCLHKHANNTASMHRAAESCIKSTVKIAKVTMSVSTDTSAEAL
# Test: Effective concentration for inhibition of Cannabinoid receptor 1-mediated adenylyl cyclase activity using African green monkey (COS-7) cells transfected with the cDNA of rat CB1 receptor
# Type: functional
row,SMILES,EC50 [nM]
1,CCCCCc1cc(O)c2c(c1)OC(C)(C)c1ccc(C)cc1-2 [CANNABINOL],120
2,CCCCCCC(C)(C)c1cc(O)c2c(c1)OC(C)(C)c1ccc(C)cc1-2,0.18
3,CCCCCCC(C)(C)c1cc(OC(C)=O)c2c(c1)OC(C)(C)c1ccc(C(=O)O)cc1-2,13.3
4,CCCCCCC(C)(C)c1cc(O)c2c(c1)oc(=O)c1ccc(C)cc12,9.6
5,CCCCCc1cc(O)c2c(c1)OC(C)(C)c1ccc(CO)cc1-2,58.1
6,CCCCCCC(C)(C)c1cc(O)c2c(c1)OC(C)(C)c1ccc(C(=O)O)cc1-2,2.4
7,CCCCCc1cc(O)c2c(c1)OC(C)(C)[C@@H]1CC=C(CO)CC21 (some centres undefined),39.9
8,CCCCCCC(C)(C)c1cc(O)c2c(c1)OC(C)(C)[C@@H]1CC=C(CO)CC21 (some centres undefined),0.035
9,CCCCCCC(C)(C)c1cc(O)c2c(c1)OC(C)(C)[C@@H]1CC=C(C(=O)O)CC21 (some centres undefined),927
10,CCCCCCC(C)(C)c1cc(O)c2c(c1)OC(C)(C)[C@@H]1CCC(C)=CC21 (some centres undefined),0.58
11,CCCCCCC(C)(C)c1cc(O)c2c(c1)OC(C)(C)c1ccc(CO)cc1-2,0.056

# Molecular target: T1, Cannabinoid receptor 2
# Test: Inhibitory affect of 1 uM of the substance against human Cannabinoid receptor 2-mediated adenylyl cyclase using African green monkey (COS-7) cells transfected with the cDNA of human CB2 receptor; No inhibition
# Type: functional, cell-based
row,SMILES,inhibition
1,CCCCCc1cc(O)c2c(c1)oc(=O)c1ccc(C)cc12,inactive

# Molecular target: T1, Cannabinoid receptor 2
# Test: Inhibitory effect of 1 uM of the substance against African green monkey (COS-7) cells Chinese hamster ovary(CHO) cells transfected with the cDNA of human Cannabinoid receptor 2
# Type: cell-based
row,SMILES,inhibition [%]
1,CCCCCCC(C)(C)c1cc(OC(C)=O)c2c(c1)OC(C)(C)[C@@H]1CC=C(C(=O)O)CC21 (some centres undefined),9

# Molecular target: Cannabinoid receptor 1 (Rattus norvegicus) (UniProt P20272)
# Sequence (P20272 whole entry): as above
# Test: Inhibitory affect of 1 uM 0f the substance against cDNA of rat Cannabinoid receptor 1
row,SMILES,inhibition [%]
1,CCCCCCC(C)(C)c1cc(OC(C)=O)c2c(c1)OC(C)(C)[C@@H]1CC=C(C(=O)O)CC21 (some centres undefined),11

# Molecular target: Cannabinoid receptor 1 (Rattus norvegicus) (UniProt P20272)
# Test: Inhibitory affect of 1 uM againstAfrican green monkey (COS-7) cells transfected with the cDNA of rat Cannabinoid receptor 1
# Type: cell-based
row,SMILES,inhibition [%]
1,CCCCCc1cc(OC(C)=O)c2c(c1)OC(C)(C)c1ccc(C(=O)O)cc1-2,35

# Molecular target: Cannabinoid receptor 1 (Rattus norvegicus) (UniProt P20272)
# Test: Inhibitory affect of 1 uM of the substance against African green monkey (COS-7) cells transfected with the cDNA of rat Cannabinoid receptor 1
# Type: cell-based
row,SMILES,inhibition [%]
1,CCCCCc1cc(O)c2c(c1)OC(C)(C)c1ccc(C(=O)O)cc1-2,< 2
2,CCCCCc1cc(O)c2c(c1)oc(=O)c1ccc(C)cc12,14

# Molecular target: Cannabinoid receptor 1 (Rattus norvegicus) (UniProt P20272)
# Test: Inhibitory affect of 1 uM of the substance against Cannabinoid receptor 1-mediated adenylyl cyclase using African green monkey (COS-7) cells transfected with the cDNA of rat CB1 receptor
# Type: functional, cell-based
row,SMILES,inhibition [%]
1,CCCCCc1cc(OC(C)=O)c2c(c1)OC(C)(C)c1ccc(C(=O)O)cc1-2,3
2,CCCCCc1cc(O)c2c(c1)OC(C)(C)c1ccc(C(=O)O)cc1-2,10
3,CCCCCc1cc(O)c2c(c1)oc(=O)c1ccc(C)cc12,7

# Molecular target: Cannabinoid receptor 1 (Rattus norvegicus) (UniProt P20272)
# Test: Inhibitory affect of 1 uM of the substance against Cannabinoid receptor 1-mediated adenylyl cyclase using African green monkey (COS-7) cells transfected with the cDNA of rat CB1 receptor; No inhibition
# Type: functional, cell-based
row,SMILES,inhibition
1,CCCCCCC(C)(C)c1cc(OC(C)=O)c2c(c1)OC(C)(C)[C@@H]1CC=C(C(=O)O)CC21 (some centres undefined),inactive

# Molecular target: T2, Cannabinoid receptor 1
# Test: Binding affinity for Cannabinoid receptor 1 using African green monkey (COS-7) cells transfected with the cDNA of […].
row,SMILES,Ki [nM]
1,CCCCCCC(C)(C)c1cc(O)c2c(c1)OC(C)(C)c1ccc(C)cc1-2,3.3
2,CCCCCCC(C)(C)c1cc(OC(C)=O)c2c(c1)OC(C)(C)c1ccc(C(=O)O)cc1-2,556
3,CCCCCCC(C)(C)c1cc(O)c2c(c1)oc(=O)c1ccc(C)cc12,72.5
4,CCCCCc1cc(O)c2c(c1)OC(C)(C)c1ccc(CO)cc1-2,189
5,CCCCCc1cc(OC(C)=O)c2c(c1)OC(C)(C)c1ccc(C(=O)O)cc1-2,> 10000
6,CCCCCCC(C)(C)c1cc(O)c2c(c1)OC(C)(C)c1ccc(C(=O)O)cc1-2,6.1
7,CCCCCc1cc(O)c2c(c1)OC(C)(C)[C@@H]1CC=C(CO)CC21 (some centres undefined),33.4
8,CCCCCCC(C)(C)c1cc(O)c2c(c1)OC(C)(C)[C@@H]1CC=C(CO)CC21 (some centres undefined),0.19
9,CCCCCCC(C)(C)c1cc(O)c2c(c1)OC(C)(C)[C@@H]1CC=C(C(=O)O)CC21 (some centres undefined),481
10,CCCCCCC(C)(C)c1cc(O)c2c(c1)OC(C)(C)[C@@H]1CCC(C)=CC21 (some centres undefined),2.6
11,CCCCCCC(C)(C)c1cc(O)c2c(c1)OC(C)(C)c1ccc(CO)cc1-2,1.8
12,CCCCCc1cc(O)c2c(c1)OC(C)(C)c1ccc(C(=O)O)cc1-2,602
13,CCCCCCC(C)(C)c1cc(OC(C)=O)c2c(c1)OC(C)(C)[C@@H]1CC=C(C(=O)O)CC21 (some centres undefined),> 10000
14,CCCCCc1cc(O)c2c(c1)oc(=O)c1ccc(C)cc12,> 10000

# Molecular target: T2, Cannabinoid receptor 1
# Test: Binding affinity of compound towards Cannabinoid receptor 1 in african green monkey COS-7 cells transfected with cDNA of rat CB1 receptor
# Type: cell-based
row,SMILES,Ki [nM]
1,CCCCCc1cc(O)c2c(c1)OC(C)(C)c1ccc(C)cc1-2 [CANNABINOL],211

# Molecular target: T2, Cannabinoid receptor 1
# Test: Binding affinity of compound towards Cannabinoid receptor 1 in rat brain synaptosomal membrane preparations
# Type: cell membranes
row,SMILES,Ki [nM]
1,CCCCCc1cc(O)c2c(c1)OC(C)(C)c1ccc(C)cc1-2 [CANNABINOL],392

# Molecular target: T1, Cannabinoid receptor 2
# Test: Binding affinity to Cannabinoid receptor 2 using African green monkey (COS-7) cells Chinese hamster ovary(CHO) cells transfected with the cDNA of human CB2
# Type: cell-based
row,SMILES,Ki [nM]
1,CCCCCCC(C)(C)c1cc(O)c2c(c1)OC(C)(C)c1ccc(C)cc1-2,1.5
2,CCCCCCC(C)(C)c1cc(OC(C)=O)c2c(c1)OC(C)(C)c1ccc(C(=O)O)cc1-2,17.3
3,CCCCCCC(C)(C)c1cc(O)c2c(c1)oc(=O)c1ccc(C)cc12,17.3
4,CCCCCc1cc(O)c2c(c1)OC(C)(C)c1ccc(CO)cc1-2,26.6
5,CCCCCCC(C)(C)c1cc(O)c2c(c1)OC(C)(C)c1ccc(C(=O)O)cc1-2,4.8
6,CCCCCc1cc(O)c2c(c1)OC(C)(C)[C@@H]1CC=C(CO)CC21 (some centres undefined),7.4
7,CCCCCCC(C)(C)c1cc(O)c2c(c1)OC(C)(C)[C@@H]1CC=C(C(=O)O)CC21 (some centres undefined),170
8,CCCCCCC(C)(C)c1cc(O)c2c(c1)OC(C)(C)[C@@H]1CCC(C)=CC21 (some centres undefined),0.199
9,CCCCCCC(C)(C)c1cc(O)c2c(c1)OC(C)(C)c1ccc(CO)cc1-2,0.2

# Molecular target: T2, Cannabinoid receptor 1
# Test: Binding to Cannabinoid receptor 1 using African green monkey (COS-7) cells transfected with the cDNA of rat CB1.
# Type: cell-based
row,SMILES,Ki [nM]
1,CCCCCCC(C)(C)c1cc(O)c2c(c1)OC(C)(C)c1ccc(C)cc1-2,2
2,CCCCCCC(C)(C)c1cc(OC(C)=O)c2c(c1)OC(C)(C)c1ccc(C(=O)O)cc1-2,49.8
3,CCCCCCC(C)(C)c1cc(O)c2c(c1)oc(=O)c1ccc(C)cc12,32.7
4,CCCCCc1cc(O)c2c(c1)OC(C)(C)c1ccc(CO)cc1-2,38
5,CCCCCCC(C)(C)c1cc(O)c2c(c1)OC(C)(C)c1ccc(C(=O)O)cc1-2,6.1
6,CCCCCc1cc(O)c2c(c1)OC(C)(C)[C@@H]1CC=C(CO)CC21 (some centres undefined),25.8
7,CCCCCCC(C)(C)c1cc(O)c2c(c1)OC(C)(C)[C@@H]1CC=C(CO)CC21 (some centres undefined),0.1
8,CCCCCCC(C)(C)c1cc(O)c2c(c1)OC(C)(C)[C@@H]1CC=C(C(=O)O)CC21 (some centres undefined),32.3
9,CCCCCCC(C)(C)c1cc(O)c2c(c1)OC(C)(C)[C@@H]1CCC(C)=CC21 (some centres undefined),0.241
10,CCCCCCC(C)(C)c1cc(O)c2c(c1)OC(C)(C)c1ccc(CO)cc1-2,0.1

# Molecular target: T1, Cannabinoid receptor 2
# Test: Binding affinity of compound towards Cannabinoid receptor 2 in african green monkey COS-7 cells transfected with cDNA of human CB2 receptor
# Type: cell-based
row,SMILES,Ki [nM]
1,CCCCCc1cc(O)c2c(c1)OC(C)(C)c1ccc(C)cc1-2 [CANNABINOL],126
